In ChEMBL document CHEMBL1201862, “PubChem BioAssay data set” (2004):
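Cells were grown in 96-well plates and exposed to each compound for 48 hours at five concentrations; endpoints were interpolated linearly between bracketing concentrations, or set to the highest concentration if not reached. At the GI50, growth is halved.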 The source made the active and inactive calls. Cut-off read from the data, not from the text of the source: active = GI50 up to about 1.1 µM and inactive = higher.

Key:
Test in all cases: inhibition of tumour cell growth, NCI panel, 48 h
[1] = test system: CAKI-1
[2] = test system: ACHN
[3] = test system: OVCAR-3
[4] = test system: A498
[5] = test system: COLO 205
[6] = test system: SF-295
[7] = test system: SNB-78
[8] = test system: TK-10
[9] = test system: M19-MEL
[10] = test system: SK-OV-3
[11] = test system: HCC 2998
[12] = test system: HCT-15
[13] = test system: NCI-H23
[14] = test system: K562
[15] = test system: UACC-257
[16] = test system: SNB-19
[17] = test system: OVCAR-4

Measured: GI50

CCOC(=O)c1c(-c2[nH]c(C(=O)OCc3ccccc3)c(C)c2C(=O)OCC)[nH]c(C(=O)OCc2ccccc2)c1C
> 100 µM: [12]
inactive: [1] > 100 µM | [2] 58.2 µM | [3] > 100 µM | [4] > 100 µM | [5] > 100 µM | [6] > 100 µM | [7] 67 µM | [8] > 100 µM | [9] > 100 µM | [10] > 100 µM | [11] > 100 µM

N=C1CSC2=NC3=C(CCC/C3=C\c3ccccc3)C(c3ccccc3)N12 (configuration not stated)
inactive: [1] 12.5 µM | [2] 11.9 µM | [13] 3.93 µM | [14] 3.21 µM | [15] 11.5 µM | [3] 2.72 µM | [4] 13.9 µM | [5] 8.89 µM | [6] 5.85 µM | [7] 5.77 µM | [8] 5.28 µM | [9] 5.19 µM | [10] 15.1 µM | [11] 3.31 µM | [16] 5.94 µM

CC1=C(C(=O)Nc2ccccc2)C(c2cccc3ccccc23)C(C(=O)Nc2ccccc2)=C(C)N1
16.2 µM: [12]
inactive: [1] 15.6 µM | [2] 24.2 µM | [13] 21.7 µM | [17] > 10 µM | [14] 30.4 µM | [15] 18.2 µM | [3] 12.8 µM | [4] 24.1 µM | [5] 13.4 µM | [6] 17.5 µM | [7] 28.7 µM | [8] 31.5 µM | [9] 19 µM | [10] 17.1 µM | [11] 20.4 µM | [16] 16.4 µM

N=C(N)NS(=O)(=O)c1ccc(Nc2c3ccccc3nc3c(C(=O)Nc4ccc(S(N)(=O)=O)cc4)ccc(Cl)c23)cc1
inactive: [1] > 100 µM | [2] > 100 µM | [13] > 100 µM | [17] > 100 µM | [14] > 100 µM | [15] > 100 µM | [3] > 100 µM | [4] > 100 µM | [5] > 100 µM | [6] > 100 µM | [7] 65.5 µM | [8] > 100 µM | [9] > 100 µM | [10] > 100 µM | [11] > 100 µM | [16] > 100 µM
> 100 µM: [12]

CC1=NC2(C(=O)O)C3(C(=O)O)N=C(C)OC3(C(F)(F)F)C2(C(F)(F)F)O1 (configuration not stated)
inactive: [1] > 100 µM | [2] > 100 µM | [13] > 100 µM | [17] > 100 µM | [14] > 100 µM | [15] > 100 µM | [3] > 100 µM | [4] > 100 µM | [5] > 100 µM | [6] > 100 µM | [7] > 100 µM | [8] > 100 µM | [9] > 100 µM | [10] > 100 µM | [11] > 100 µM | [16] > 100 µM
> 10 µM: [12]

O=C(NCCCCNc1cccccc1=O)OCc1ccccc1
inactive: [1] > 100 µM | [2] > 100 µM | [13] > 100 µM | [17] > 100 µM | [14] > 100 µM | [15] > 100 µM | [3] > 100 µM | [4] > 100 µM | [5] > 100 µM | [6] > 100 µM | [7] > 100 µM | [8] > 100 µM | [9] > 100 µM | [10] > 100 µM | [11] > 100 µM | [16] > 100 µM
> 100 µM: [12]

CC(C)OP(=O)(OC(C)C)/C(=N/Nc1ccc([N+](=O)[O-])cc1)Nc1ccccc1
inactive: [1] 34.7 µM | [2] 24.8 µM | [13] 26.2 µM | [17] 28.4 µM | [14] 21.1 µM | [15] 21 µM | [3] 32.2 µM | [4] > 10 µM | [5] 21.6 µM | [7] 17.5 µM | [8] 12.4 µM | [9] 47.2 µM | [11] 49.5 µM | [16] 36.7 µM
32.4 µM: [12]

COC(=O)C1CC2c3c(c4ccccc4n3C)CC(C1=O)N2C (configuration not stated)
inactive: [1] 43.5 µM | [2] 35.7 µM | [13] 50.8 µM | [17] 37.3 µM | [14] 40.1 µM | [15] 32.8 µM | [3] 34.8 µM | [4] 28.2 µM | [5] 17.3 µM | [6] > 100 µM | [7] 47 µM | [8] 40.2 µM | [9] 49.3 µM | [10] 51.4 µM | [11] 34.8 µM | [16] 75.9 µM
22.3 µM: [12]

C#Cc1c(C)c(/C=C/C(C)=C/C(=O)OC)n(C)c1C
inactive: [1] > 100 µM | [2] 43.7 µM | [13] > 100 µM | [17] 82.2 µM | [14] 24.2 µM | [15] > 100 µM | [3] > 100 µM | [4] > 100 µM | [5] > 100 µM | [6] > 100 µM | [7] > 100 µM | [8] > 100 µM | [9] > 100 µM | [10] > 100 µM | [11] 59 µM | [16] > 100 µM
95.3 µM: [12]

N#CCC(=O)N1CCCOCCC1
17.9 µM: [12]
inactive: [1] > 100 µM | [2] > 100 µM | [13] > 100 µM | [17] 38.6 µM | [14] > 100 µM | [15] > 100 µM | [4] > 100 µM | [5] 21.8 µM | [6] > 100 µM | [7] > 100 µM | [8] > 100 µM | [9] > 100 µM | [10] > 100 µM | [11] > 100 µM | [16] > 100 µM

C=C1C(=O)OC2C1CC[C@H](C)C13OC(=O)CC1[C@@]23C (some centres not stated)
inactive: [1] > 100 µM | [2] > 100 µM | [13] > 100 µM | [14] > 100 µM | [15] > 100 µM | [3] > 100 µM | [4] > 100 µM | [5] > 100 µM | [6] > 100 µM | [7] > 100 µM | [8] > 100 µM | [9] > 100 µM | [10] > 100 µM | [11] > 100 µM | [16] > 100 µM

COc1ccc(OC)c(/C(C)=N/NC(N)=S)c1
inactive: [1] > 100 µM | [2] > 100 µM | [13] > 100 µM | [17] > 100 µM | [14] > 100 µM | [15] > 100 µM | [3] > 100 µM | [4] > 100 µM | [5] > 100 µM | [6] > 100 µM | [7] > 100 µM | [8] > 100 µM | [9] > 100 µM | [10] > 100 µM | [11] > 100 µM
> 100 µM: [12]

COc1cc(C2C(Cl)C(=O)N2NC(=O)c2ccc(NC(C)=O)cc2)ccc1O (configuration not stated)
inactive: [1] > 100 µM | [2] > 100 µM | [13] > 100 µM | [17] > 100 µM | [14] > 100 µM | [15] > 100 µM | [3] > 100 µM | [4] > 100 µM | [5] > 100 µM | [6] > 100 µM | [7] > 100 µM | [8] > 100 µM | [9] > 100 µM | [10] > 100 µM | [16] > 100 µM
> 100 µM: [12]
